{"source": "patent US8053476B2", "about": "“Method for treating peripheral neuropathic pain” (UCB Pharma GmbH, priority 2001, dated 2011)", "key": {"[1]": {"tested_on": "female Wistar rats", "assay": "Freund's complete adjuvant arthritis model, paw pressure test (Randall Selitto), vocalisation", "assay_type": "in vivo, rat", "protocol": "Experiments were performed in female Wistar rats weighing 80-90 g at the beginning of the experiments. Arthritis was induced by intraplantar injection of Freund's complete adjuvant (FCA, 0.1 ml) to one hindpaw. Drugs were given on day 11 after FCA injection in animals which developed systemic secondary arthritic symptoms as assessed by visual inspection. Mechanical hyperalgesia was than acutely applied and measured by means of the paw pressure test (Randall Selitto method) and supraspinal vocalisation as the biological endpoint of the nociceptive reaction. Measurements were taken at 0 min (before drug injection) and 15 min, 30 min, 60 min, and 24 h after drug injection and all data are expressed as percent of maximal possible effect (% MPE).\n10 groups of 15 rats were used and received the following treatments: […]"}, "[2]": {"tested_on": "rat", "assay": "Chronic constriction injury (CCI, Bennett-model), thermal hyperalgesia (Hargreaves)", "assay_type": "in vivo", "details": "for Withdrawal latency, Post-operative + SPM 927: ligated hind paw, radiant heat, ±SEM", "protocol": "(§1) The effectiveness of SPM 927 in reducing spontaneous chronic pain, mechanical allodynia, and thermal hyperalgesia was tested using the chronic constriction injury (CCI) model of peripheral neuropathy, one of the best characterised in vivo animal models used to study chronic pain due to peripheral nerve injury. In this model, loose ligatures are placed around the sciatic nerve, which produces axonal swelling and a partial deafferentation manifested as a significant but incomplete loss of axons in the distal portion of the peripheral nerve. One of the prominent behaviours seen following sciatic nerve ligation is the appearance of hind paw guarding, thought to be an indication of an ongoing spontaneous chronic pain. Support for this idea is derived from reports of increased spinal cord neural activity, and increased spontaneous neuronal discharge in spinothalamic tract neurons and in the ventrobasal thalamus in the absence of overt peripheral stimulation. In addition to the appearance of spontaneous pain behaviours, several abnormalities in stimulus evoked pain occur as a result of CCI, including thermal hyperalgesia and mechanical allodynia. The development of these abnormal stimulus-evoked pains has also been reported as occurring in areas outside the territory of the damaged nerve, areas innervated by uninjured nerves.\nBehavioural tests for thermal hyperalgesia, and mechanical allodynia were conducted to evaluate different components of neuropathic pain. Baseline data for each test was collected prior to any experimental procedure; in addition, all animals were tested for the development of chronic pain behaviours 13-25 days after CCI surgery 1 day prior to the day of vehicle (0.04 ml sterile water/10 g body weight) or drug administration and after vehicle or drug administration. The sequence of the pain-related behaviour tests was (1) thermal hyperalgesia, (2) mechanical allodynia in order to minimise the influence of one test on the result of the next. The testing procedures and results are presented separately for each aspect of chronic pain. Either 0 (vehicle, 0.04 ml/10 g body weight), 5, 10, 20 or 40 mg/kg of SPM 927 (n=7-23/group) was administered i.p. 15 minutes before the first behavioural test.\n(1) Thermal hyperalgesia was assessed by means of withdrawal latency in response to radiant heat applied to the subplantar surface of the ligated rat hind paw according to Hargreaves. As compared to the baseline latency (s), a significant decrease in the (postoperative) latency of foot withdrawal in response to the thermal stimulus was interpreted as indicating the presence of thermal hyperalgesia following chronic constriction injury."}, "[3]": {"tested_on": "rat", "assay": "Formalin test, rat: prolonged inflammatory pain (weighted pain score)", "assay_type": "in vivo", "details": "i.p. just prior to formalin injection, 5-40 mg/kg", "protocol": "The formalin test is a chemically-induced tonic pain model in which biphasic changes of nociceptive behaviour are assessed and spinal/supraspinal plasticity of nociception is considered as a molecular basis for neuropathic pain particularly during the second (=late) phase of the test, during which most clinically used drugs against neuropathic pain are active.\nThe compound was tested for anti-nociceptive properties by use of the weighted behavioural scoring method: Freely moving animals underwent observational assessment of the position of the left hind paw according to a rating score scaled 0-3 before and 10, 20, 30 and 40 min after injection of 0.05 ml of sterile 2.5% formalin under the skin on the dorsal surface of the paw."}, "[4]": {"tested_on": "rat", "assay": "Randall-Selitto paw pressure test, carrageenan induced acute inflammation", "assay_type": "in vivo", "details": "for Mechanical nociceptive threshold pressure, Carrageenan + SPM 927: ±SEM, n=12", "protocol": "Further potential anti-nociceptive efficacy of SPM 927 was assessed in a rat experimental model of acute inflammation using a modified Randall and Selitto procedure. Acute inflammation is induced by injection of s.c. carrageenan (1.0 mg in 0.1 ml saline/paw), an unspecific inflammatory agent, into the plantar surface of one hind paw of the animal. Mechanical sensitivity and nociceptive thresholds were measured using an algesimeter device that exerts a constantly increasing mechanical force (10 mm Hg/sec) on the inflammed hind paw. The mechanical nociceptive threshold is defined as the pressure (mm Hg) at which the rat vocalises or struggles or withdraws its paw. Since its original description, the Randall and Selitto mechanical paw pressure test has become a standard method for testing the efficacy of new compounds for alleviating acute inflammatory pain.\nSPM 927 or vehicle (sterile water, 0.04 […]) was administered i.p. 1 hr and 45 minutes after carrageenan, meaning 15 to 20 minutes before the start of behavioural testing. As compared to the response threshold of vehicle-treated controls, an increase in the pressure required to produce a behavioural response is interpreted as antinociception."}, "[5]": {"tested_on": "rat", "assay": "Chronic constriction injury (CCI, Bennett-model), mechanical allodynia (Von Frey pressure algometer)", "assay_type": "in vivo", "details": "for Pressure to elicit foot withdrawal, Post-operative + SPM 927: ligated hind paw, ±SEM", "protocol": "as §1\nBehavioural tests for thermal hyperalgesia, and mechanical allodynia were conducted to evaluate different components of neuropathic pain. Baseline data for each test was collected prior to any experimental procedure; in addition, all animals were tested for the development of chronic pain behaviours 13-25 days after CCI surgery 1 day prior to the day of vehicle (0.04 ml sterile water/10 g body weight) or drug administration and after vehicle or drug administration. […]\nMechanical sensitivity and allodynia of the ligated rat hind paw was quantified by brisk foot withdrawal in response to normally innocuous mechanical stimuli as described previously. […]"}}, "data": [{"smiles": "COC[C@@H](NC(C)=O)C(=O)NCc1ccccc1", "note": "[SPM 927, (R)-2-acetamide-N-benzyl-3-methoxypropionamide]", "values": [{"measurement": "Anti-inflammatory effect in FCA arthritis", "setting": "[1]; 30 mg/kg early (with FCA)", "result": "no anti-inflammatory effects"}, {"measurement": "Anti-nociceptive effect in FCA arthritis", "setting": "[1]; 5-40 mg/kg acute, significant at 30 and 40 mg/kg", "result": "dose-dependent anti-nociceptive"}, {"measurement": "% MPE", "setting": "[1]; FCA rats, 5 mg/kg acute (day 11), 15 min", "result": "−5", "unit": "% MPE"}, {"measurement": "% MPE", "setting": "[1]; FCA rats, 5 mg/kg acute (day 11), 30 min", "result": "−5", "unit": "% MPE"}, {"measurement": "% MPE", "setting": "[1]; FCA rats, 5 mg/kg acute (day 11), 60 min", "result": "−12", "unit": "% MPE"}, {"measurement": "% MPE", "setting": "[1]; FCA rats, 5 mg/kg acute (day 11), 24 h", "result": "−14", "unit": "% MPE"}, {"measurement": "% MPE", "setting": "[1]; FCA rats, 10 mg/kg acute (day 11), 15 min", "result": "+7 % MPE"}, {"measurement": "% MPE", "setting": "[1]; FCA rats, 10 mg/kg acute (day 11), 30 min", "result": "−2", "unit": "% MPE"}, {"measurement": "% MPE", "setting": "[1]; FCA rats, 10 mg/kg acute (day 11), 60 min", "result": 0, "unit": "% MPE"}, {"measurement": "% MPE", "setting": "[1]; FCA rats, 10 mg/kg acute (day 11), 24 h", "result": "−5", "unit": "% MPE"}, {"measurement": "% MPE", "setting": "[1]; FCA rats, 20 mg/kg acute (day 11), 15 min", "result": "+1 % MPE"}, {"measurement": "% MPE", "setting": "[1]; FCA rats, 20 mg/kg acute (day 11), 30 min", "result": "−20", "unit": "% MPE"}, {"measurement": "% MPE", "setting": "[1]; FCA rats, 20 mg/kg acute (day 11), 60 min", "result": "−9", "unit": "% MPE"}, {"measurement": "% MPE", "setting": "[1]; FCA rats, 20 mg/kg acute (day 11), 24 h", "result": "−20", "unit": "% MPE"}, {"measurement": "% MPE", "setting": "[1]; FCA rats, 30 mg/kg acute (day 11), 15 min", "result": "+58 % MPE"}, {"measurement": "% MPE", "setting": "[1]; FCA rats, 30 mg/kg acute (day 11), 30 min", "result": "+33 % MPE"}, {"measurement": "% MPE", "setting": "[1]; FCA rats, 30 mg/kg acute (day 11), 60 min", "result": "+16 % MPE"}, {"measurement": "% MPE", "setting": "[1]; FCA rats, 30 mg/kg acute (day 11), 24 h", "result": "−8", "unit": "% MPE"}, {"measurement": "% MPE", "setting": "[1]; FCA rats, 30 mg/kg early (with FCA), anti-inflammatory effects group, 15 min", "result": "−14", "unit": "% MPE"}, {"measurement": "% MPE", "setting": "[1]; FCA rats, 30 mg/kg early (with FCA), anti-inflammatory effects group, 30 min", "result": "−7", "unit": "% MPE"}, {"measurement": "% MPE", "setting": "[1]; FCA rats, 30 mg/kg early (with FCA), anti-inflammatory effects group, 60 min", "result": "−3", "unit": "% MPE"}, {"measurement": "% MPE", "setting": "[1]; FCA rats, 30 mg/kg early (with FCA), anti-inflammatory effects group, 24 h", "result": "−11", "unit": "% MPE"}, {"measurement": "% MPE", "setting": "[1]; FCA rats, 40 mg/kg acute (day 11), 15 min", "result": "+100 % MPE"}, {"measurement": "% MPE", "setting": "[1]; FCA rats, 40 mg/kg acute (day 11), 30 min", "result": "+100 % MPE"}, {"measurement": "% MPE", "setting": "[1]; FCA rats, 40 mg/kg acute (day 11), 60 min", "result": "+14 % MPE"}, {"measurement": "% MPE", "setting": "[1]; FCA rats, 40 mg/kg acute (day 11), 24 h", "result": "−7", "unit": "% MPE"}, {"measurement": "Dose at which anti-nociceptive effects started", "setting": "[1]; FCA rats, most prominent during first 30 min", "result": 30, "unit": "mg/kg"}, {"measurement": "Withdrawal latency, Post-operative + SPM 927", "setting": "[2]; 5 mg/kg i.p.", "result": "9.1 ± 0.97", "unit": "s"}, {"measurement": "Withdrawal latency, Post-operative + SPM 927", "setting": "[2]; 10 mg/kg i.p.", "result": "8.0 ± 0.58", "unit": "s"}, {"measurement": "Dose at which maximum effect on thermal hyperalgesia was seen", "setting": "[2]; i.p.", "result": 20, "unit": "mg/kg"}, {"measurement": "Effect on CCI-induced thermal hyperalgesia", "setting": "[2]; i.p., significant only at 20 and 40 mg/kg", "result": "dose dependently reduced chronic constriction injury-induced thermal hyperalgesia"}, {"measurement": "Effect on formalin-induced nociceptive behaviour", "setting": "[3]", "result": "dose dependent reduction of the formalin-induced tonic inflammatory nociceptive behaviour"}, {"measurement": "Mechanical nociceptive threshold pressure, Carrageenan + SPM 927", "setting": "[4]; 20 mg/kg i.p. 1 hr 45 min after carrageenan", "result": "164.8 ± 13.5", "unit": "mm Hg"}, {"measurement": "Mechanical nociceptive threshold pressure, Carrageenan + SPM 927", "setting": "[4]; 40 mg/kg i.p. 1 hr 45 min after carrageenan", "result": "232.7 ± 22.0", "unit": "mm Hg"}, {"measurement": "Effect on carrageenan induced mechanical hyperalgesia", "setting": "[4]; 20 and 40 mg/kg i.p.", "result": "markedly reduced the mechanical hyperalgesia induced by carrageenan"}, {"measurement": "Pressure to elicit foot withdrawal, Post-operative + SPM 927", "setting": "[5]; 20 mg/kg i.p.", "result": "39.5 ± 3.62", "unit": "g/mm^2"}, {"measurement": "Pressure to elicit foot withdrawal, Post-operative + SPM 927", "setting": "[5]; 40 mg/kg i.p.", "result": "42.9 ± 5.47", "unit": "g/mm^2"}, {"measurement": "Effect on mechanical allodynia induced by unilateral nerve ligation", "setting": "[5]; i.p., 5-40 mg/kg", "result": "dose dependently reduced the intensity of mechanical allodynia"}]}, {"smiles": "CN1CC[C@]23c4c5ccc(O)c4O[C@H]2[C@@H](O)C=C[C@H]3[C@H]1C5", "note": "[morphine, reference compound]", "values": [{"measurement": "Antinociceptive effect of positive control", "setting": "[1]; 10 mg/kg, arthritic and normal animals", "result": "clear antinociceptive effects in arthritic and normal animals"}, {"measurement": "% MPE", "setting": "[1]; FCA rats (disease condition), 10 mg/kg, 15 min", "result": "+100 % MPE"}, {"measurement": "% MPE", "setting": "[1]; FCA rats (disease condition), 10 mg/kg, 30 min", "result": "+100 % MPE"}, {"measurement": "% MPE", "setting": "[1]; FCA rats (disease condition), 10 mg/kg, 60 min", "result": "+100 % MPE"}, {"measurement": "% MPE", "setting": "[1]; FCA rats (disease condition), 10 mg/kg, 24 h", "result": "−7", "unit": "% MPE"}, {"measurement": "% MPE", "setting": "[1]; no FCA (normal condition), 10 mg/kg, 15 min", "result": "+100 % MPE"}, {"measurement": "% MPE", "setting": "[1]; no FCA (normal condition), 10 mg/kg, 30 min", "result": "+100 % MPE"}, {"measurement": "% MPE", "setting": "[1]; no FCA (normal condition), 10 mg/kg, 60 min", "result": "+100 % MPE"}, {"measurement": "% MPE", "setting": "[1]; no FCA (normal condition), 10 mg/kg, 24 h", "result": "+2 % MPE"}]}]}
